From US20250144067A1, “PERSONALIZED STARVATION THERAPY FOR CANCER” (Faeth Therapeutics, Inc., priority 2021, published 2025)
Structures can show the parent of a compound that is named as a salt.

Columns and labels:
[1] = system: NCI-H292 lung cancer cells; experiment: FDA drug screening, complete media vs cholesterol-free media with simvastatin (TABLE 2); type: cell-based, human; settings: for Cholesterol-free media + simvastatin (0.04 μM) / Complete Media: NCI-H292 cells
[2] = system: NCI-H292 lung cancer cells; experiment: FDA drug screening, complete media vs cholesterol-free media without statin (TABLE 1); type: cell-based, human
[3] = FDA drug library screen, cholesterol-free media with simvastatin 0.04 μM
[4] = FDA drug library screen, complete media
[5] = complete media minus cholesterol-free media + simvastatin, >0 enhanced anti-cancer activity, about 0 neutral, <0 antagonist
[6] = Complete minus Cholesterol-free, >0 enhanced anti-cancer activity, about 0 neutral, <0 antagonist
[7] = NCI-H292 cells, cholesterol-free media without statin, FDA drug library screen
[8] = NCI-H292 cells, complete media, FDA drug library screen
[9] = Complete minus Cholesterol-free, […]
[10] = drug in cholesterol-free media with simvastatin 0.04 μM
[11] = complete media vs cholesterol-free media + simvastatin (0.04 μM), >0 enhanced anti-cancer activity, about 0 neutral, <0 antagonist
[12] = NCI-H292 cells, cholesterol-free media without statin
[13] = complete vs cholesterol-free media, greater than 0 enhanced anti-cancer activity, about 0 neutral, below 0 antagonists
[14] = complete vs cholesterol-free media, >0 enhanced anti-cancer activity, about 0 neutral, <0 antagonist
[15] = FDA library drug in cholesterol-free media with simvastatin 0.04 μM
[16] = FDA library drug in complete media
[17] = Complete minus Cholesterol-free, greater than 0 enhanced anti-cancer activity, about 0 neutral, below 0 antagonist
[18] = NCI-H292 cells, FDA drug library screen, cholesterol-free media without statin
[19] = NCI-H292 cells, FDA drug library screen, complete media

O[C@@H]1CO[C@H]2[C@@H]1OC[C@@H]2O [Isosorbide]
Cholesterol-free media + simvastatin (0.04 μM) [1, 3]: 0.9214
Complete Media [1, 4]: 1.515
Difference [1, 5]: 0.59
Difference [2, 6]: −0.05
Cholesterol-free [2, 7]: 1.174
Complete [2, 8]: 1.123

CCN(CC)c1ccc(C(=C2C=CC(=[N+](CC)CC)C=C2)c2cc(S(=O)(=O)[O-])ccc2S(=O)(=O)[O-])cc1.[Na+] [Isosulfan blue]
Cholesterol-free media + simvastatin (0.04 μM) ([1]; cholesterol-free media with simvastatin 0.04 μM, […]): 1.148
Complete Media ([1]; complete media, […]): 1.247
Difference ([1]; complete media minus cholesterol-free media + simvastatin, […]): 0.10
Difference [2, 9]: −0.07
Cholesterol-free [2, 7]: 1.156
Complete [2, 8]: 1.087

Cc1cc(NC(=O)C2=C(O)c3ccccc3S(=O)(=O)N2C)no1 [Isoxicam]
Cholesterol-free media + simvastatin (0.04 μM) [1, 10]: 1.282
Complete Media ([1]; drug in complete media): 1.064
Difference [1, 11]: −0.22
Difference ([2]; Complete minus Cholesterol-free, greater than 0 enhanced anti-cancer activity, about 0 neutral, below 0 antagonists): −0.71
Cholesterol-free ([2]; NCI-H292 cells in cholesterol-free media without statin): 1.72
Complete ([2]; NCI-H292 cells in complete media): 1.015

CC(COc1ccccc1)NC(C)C(O)c1ccc(O)cc1 (stereo not drawn) [Isoxsuprine hydrochloride]
Cholesterol-free media + simvastatin (0.04 μM) [1, 10]: 0.8873
Complete Media ([1]; drug in complete media): 0.6774
Difference [1, 11]: −0.21
Cholesterol-free [2, 12]: 1.314
Complete ([2]; NCI-H292 cells, complete media): 0.939
Difference [2, 13]: −0.38

COC(=O)C1=C(C)NC(C)=C(C(=O)OC(C)C)C1c1cccc2nonc12 (stereo not drawn) [Isradipine]
Cholesterol-free media + simvastatin (0.04 μM) [1, 3]: 0.7485
Complete Media [1, 4]: 1.061
Difference [1, 5]: 0.31
Cholesterol-free [2, 12]: 1.16
Complete ([2]; NCI-H292 cells, complete media): 0.8034
Difference [2, 13]: −0.36

CCn1c(=O)c2c(nc(/C=C/c3ccc(OC)c(OC)c3)n2C)n(CC)c1=O [Istradefylline]
Cholesterol-free media + simvastatin (0.04 μM) [1, 10]: 1.183
Complete Media ([1]; drug in complete media): 0.9547
Difference [1, 11]: −0.23
Cholesterol-free [2, 7]: 0.9821
Difference [2, 14]: 0.19

COc1ccc(C(=O)NCc2ccc(OCCN(C)C)cc2)cc1OC [Itopride (hydrochloride)]
Cholesterol-free media + simvastatin (0.04 μM) [1, 15]: 1.711
Complete Media [1, 16]: 1.056
Difference [1, 11]: −0.65
Difference [2, 6]: −0.04
Cholesterol-free [2, 7]: 1.141
Complete [2, 8]: 1.104

CCC(C)n1ncn(-c2ccc(N3CCN(c4ccc(OCC5COC(Cn6cncn6)(c6ccc(Cl)cc6Cl)O5)cc4)CC3)cc2)c1=O (stereo not drawn) [Itraconazole]
Cholesterol-free media + simvastatin (0.04 μM) [1, 3]: 1.121
Complete Media [1, 4]: 0.9797
Difference [1, 11]: −0.14
Cholesterol-free [2, 7]: 0.7502
Complete [2, 8]: 1.257
Difference [2, 14]: 0.51

COc1cc2c(cc1OC)CC(=O)N(CCCN(C)C[C@H]1Cc3cc(OC)c(OC)cc31)CC2 [Ivabradine (hydrochloride)]
Cholesterol-free media + simvastatin (0.04 μM) [1, 3]: 1.338
Complete Media [1, 4]: 1.217
Difference [1, 11]: −0.12
Difference [2, 13]: −0.47

CC(C)(C)c1cc(C(C)(C)C)c(NC(=O)c2c[nH]c3ccccc3c2=O)cc1O [Ivacaftor]
Cholesterol-free media + simvastatin (0.04 μM) [1, 3]: 1.021
Complete Media [1, 4]: 0.931
Difference [1, 11]: −0.09
Difference [2, 17]: −0.10
Cholesterol-free [2, 18]: 0.9826
Complete [2, 19]: 0.878

CC[C@H](C)[C@H]1O[C@]2(CC[C@@H]1C)C[C@@H]1C[C@@H](C/C=C(\C)[C@@H](O[C@H]3C[C@H](OC)[C@@H](O[C@H]4C[C@H](OC)[C@@H](O)[C@H](C)O4)[C@H](C)O3)[C@@H](C)/C=C/C=C3\CO[C@@H]4[C@H](O)C(C)=C[C@@H](C(=O)O1)[C@]34O)O2 [Ivermectin]
Cholesterol-free media + simvastatin (0.04 μM) [1, 15]: 1.074
Complete Media [1, 16]: 0.4557
Difference ([1]; complete media vs cholesterol-free media + simvastatin (0.04 μM), […]): −0.62
Difference [2, 9]: 0.00
Cholesterol-free [2, 7]: 0.1454
Complete [2, 8]: 0.1503

N#Cc1ccnc(N2C(=O)CC[C@H]2C(=O)N(c2cncc(F)c2)[C@H](C(=O)NC2CC(F)(F)C2)c2ccccc2Cl)c1 [Ivosidenib]
Cholesterol-free media + simvastatin (0.04 μM) ([1]; cholesterol-free media with simvastatin 0.04 μM, cell growth value in FDA drug screen): 0.8742
Complete Media ([1]; complete media, cell growth value in FDA drug screen): 0.9265
Difference [1, 5]: 0.05
Difference [2, 17]: −0.17
Cholesterol-free [2, 18]: 0.9061
Complete [2, 19]: 0.7326

C/C(=C\c1csc(C)n1)[C@@H]1C[C@@H]2O[C@]2(C)CCC[C@H](C)[C@H](O)[C@@H](C)C(=O)C(C)(C)[C@@H](O)CC(=O)N1 [Ixabepilone]
Cholesterol-free media + simvastatin (0.04 μM) ([1]; cholesterol-free media with simvastatin 0.04 μM, FDA drug library screen (TABLE 2)): 0.1261
Complete Media ([1]; complete media, FDA drug library screen (TABLE 2)): 0.1336
Difference ([1]; complete media minus cholesterol-free media + simvastatin (0.04 μM), >0 enhanced anti-cancer activity, about 0 neutral, <0 antagonist): 0.01
Difference [2, 6]: −0.01
Cholesterol-free [2, 7]: 0.1019
Complete [2, 8]: 0.09155

CC(C)C[C@H](NC(=O)CNC(=O)c1cc(Cl)ccc1Cl)B1OC(=O)C(CC(=O)O)(CC(=O)O)O1 [Ixazomib citrate]
Cholesterol-free media + simvastatin (0.04 μM) [1, 3]: 0.141
Complete Media [1, 4]: 0.02787
Difference [1, 11]: −0.11
Cholesterol-free [2, 7]: −0.00597
Complete [2, 8]: 0.1018
Difference [2, 14]: 0.11
